Here are results for 13 molecules from ChEMBL document CHEMBL1909046, “DrugMatrix in vitro pharmacology data”.

A word on the IC50: it is the concentration at which inhibition is half-maximal. As usually defined, the Ki is the dissociation constant of the complex between target and ligand, obtained from inhibition or displacement.

Data set [1] deals with Delta-type opioid receptor (Homo sapiens, UniProt P41143). Format: cell membranes, HEK293, Membrane. Particulars: hek293.
In data set [2] the target is T1, Receptor-type tyrosine-protein phosphatase C (Homo sapiens, UniProt P08575).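 Also: inhibition of CD45 enzyme activity measured using DiFMUP as substrate; in other assays of this panel Not Active means under 50% inhibition at 10 µM.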
T1 sequence (P08575 whole entry): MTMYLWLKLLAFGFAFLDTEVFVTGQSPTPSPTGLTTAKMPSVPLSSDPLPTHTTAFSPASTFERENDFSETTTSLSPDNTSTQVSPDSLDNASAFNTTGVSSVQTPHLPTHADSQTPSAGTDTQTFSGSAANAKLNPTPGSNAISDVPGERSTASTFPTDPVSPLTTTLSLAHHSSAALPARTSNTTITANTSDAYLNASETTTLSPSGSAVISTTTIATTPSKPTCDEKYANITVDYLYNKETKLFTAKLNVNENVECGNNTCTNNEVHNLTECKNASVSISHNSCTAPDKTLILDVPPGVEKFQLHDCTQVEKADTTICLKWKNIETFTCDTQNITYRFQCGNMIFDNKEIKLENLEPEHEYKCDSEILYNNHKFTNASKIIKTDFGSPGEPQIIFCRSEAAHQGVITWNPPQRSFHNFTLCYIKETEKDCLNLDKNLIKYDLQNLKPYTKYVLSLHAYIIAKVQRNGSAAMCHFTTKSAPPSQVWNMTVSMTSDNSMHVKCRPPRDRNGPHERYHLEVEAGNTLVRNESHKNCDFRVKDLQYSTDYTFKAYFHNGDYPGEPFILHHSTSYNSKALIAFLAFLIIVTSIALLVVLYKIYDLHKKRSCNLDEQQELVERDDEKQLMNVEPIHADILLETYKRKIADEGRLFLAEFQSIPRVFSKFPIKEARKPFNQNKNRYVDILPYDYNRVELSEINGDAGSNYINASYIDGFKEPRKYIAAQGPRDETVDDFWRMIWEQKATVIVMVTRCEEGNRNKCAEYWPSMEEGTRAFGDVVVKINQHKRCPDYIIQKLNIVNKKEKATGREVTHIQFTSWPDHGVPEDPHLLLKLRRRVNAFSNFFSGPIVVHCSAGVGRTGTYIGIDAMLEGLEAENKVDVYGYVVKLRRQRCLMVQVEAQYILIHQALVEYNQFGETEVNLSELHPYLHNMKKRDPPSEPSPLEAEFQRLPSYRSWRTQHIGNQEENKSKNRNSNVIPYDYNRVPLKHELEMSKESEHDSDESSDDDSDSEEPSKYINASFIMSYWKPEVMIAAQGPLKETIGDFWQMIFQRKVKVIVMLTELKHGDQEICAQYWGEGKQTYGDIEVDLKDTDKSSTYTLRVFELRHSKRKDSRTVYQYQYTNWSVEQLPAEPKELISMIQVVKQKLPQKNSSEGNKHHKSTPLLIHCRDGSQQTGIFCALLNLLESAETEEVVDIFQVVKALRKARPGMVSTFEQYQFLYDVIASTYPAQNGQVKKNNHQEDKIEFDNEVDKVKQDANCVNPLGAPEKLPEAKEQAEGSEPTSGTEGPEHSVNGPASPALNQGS
More on the design: species or system Escherichia coli.

The target in another data set is T2, Progesterone receptor (Bos taurus, UniProt Q690N0).
T2 sequence (Q690N0 whole entry): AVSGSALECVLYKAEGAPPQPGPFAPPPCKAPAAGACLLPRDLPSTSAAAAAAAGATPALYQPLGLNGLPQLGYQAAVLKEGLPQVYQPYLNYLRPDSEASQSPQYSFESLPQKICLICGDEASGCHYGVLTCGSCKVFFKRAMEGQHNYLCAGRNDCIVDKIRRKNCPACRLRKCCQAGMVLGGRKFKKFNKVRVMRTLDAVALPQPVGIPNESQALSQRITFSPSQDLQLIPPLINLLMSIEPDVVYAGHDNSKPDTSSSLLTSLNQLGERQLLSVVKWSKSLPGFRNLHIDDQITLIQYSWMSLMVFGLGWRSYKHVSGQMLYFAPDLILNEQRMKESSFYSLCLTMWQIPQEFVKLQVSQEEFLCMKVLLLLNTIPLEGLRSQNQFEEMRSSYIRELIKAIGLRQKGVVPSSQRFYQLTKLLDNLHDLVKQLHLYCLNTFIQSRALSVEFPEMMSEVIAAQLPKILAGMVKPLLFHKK
Nature of the data set: DRUGMATRIX: Progesterone radioligand binding (ligand: [3H] R-5020). The format is tissue-based, Uterus. Particulars: Not Active = under 50% inhibition at 10 µM; for Ki: read-out: Ki.

For another data set, the target named is Cytochrome P450 2E1 (Homo sapiens, UniProt P05181). Particulars: bti-tn-5b1-4. Also: in other assays of this panel Not Active means under 50% inhibition at 10 µM.
A further data set concerns the target T3, Thromboxane-A synthase (Homo sapiens, UniProt P24557).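 Also: enzyme inhibition assay with PGH2 supplied as substrate; in other assays of this panel Not Active means under 50% inhibition at 10 µM.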
T3 sequence (P24557 whole entry): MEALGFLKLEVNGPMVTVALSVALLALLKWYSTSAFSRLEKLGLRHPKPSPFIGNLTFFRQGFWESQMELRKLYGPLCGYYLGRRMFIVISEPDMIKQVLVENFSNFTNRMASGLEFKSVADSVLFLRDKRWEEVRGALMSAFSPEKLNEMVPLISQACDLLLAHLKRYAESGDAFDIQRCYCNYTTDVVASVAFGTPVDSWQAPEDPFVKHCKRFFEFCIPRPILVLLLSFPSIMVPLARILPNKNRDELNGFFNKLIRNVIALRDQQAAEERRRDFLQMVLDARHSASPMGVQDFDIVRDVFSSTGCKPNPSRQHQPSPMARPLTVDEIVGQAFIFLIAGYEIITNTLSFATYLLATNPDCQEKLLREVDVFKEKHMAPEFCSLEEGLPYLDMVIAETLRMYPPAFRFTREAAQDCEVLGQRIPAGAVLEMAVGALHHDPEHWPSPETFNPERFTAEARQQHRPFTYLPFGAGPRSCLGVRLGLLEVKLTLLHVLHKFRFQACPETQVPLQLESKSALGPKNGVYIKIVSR
In words: biochemical. The format is tissue-based, Platelet. As to conditions: platelet.

Data set [3] can be described thus: DRUGMATRIX: Tumor Necrosis Factor (TNF), Non-Selective radioligand binding (ligand: [125I] TNF-alpha). Format: cell membranes, Membrane. As to conditions: u-937; Not Active = under 50% inhibition at 10 µM.

Sequence of Cytochrome P450 2E1 (P05181 whole entry): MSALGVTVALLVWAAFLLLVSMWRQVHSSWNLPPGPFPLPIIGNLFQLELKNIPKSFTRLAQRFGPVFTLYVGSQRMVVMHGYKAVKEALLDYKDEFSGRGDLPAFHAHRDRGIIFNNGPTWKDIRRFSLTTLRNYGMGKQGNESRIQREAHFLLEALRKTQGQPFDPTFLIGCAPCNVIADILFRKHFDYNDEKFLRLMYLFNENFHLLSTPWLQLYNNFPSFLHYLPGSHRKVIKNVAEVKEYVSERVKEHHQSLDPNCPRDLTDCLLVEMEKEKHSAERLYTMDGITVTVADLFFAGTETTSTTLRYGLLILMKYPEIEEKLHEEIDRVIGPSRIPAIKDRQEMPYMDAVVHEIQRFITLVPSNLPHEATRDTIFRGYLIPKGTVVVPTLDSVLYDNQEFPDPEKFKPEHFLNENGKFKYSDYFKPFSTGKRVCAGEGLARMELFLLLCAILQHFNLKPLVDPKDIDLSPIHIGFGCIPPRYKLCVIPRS
Sequence of Delta-type opioid receptor (P41143 whole entry): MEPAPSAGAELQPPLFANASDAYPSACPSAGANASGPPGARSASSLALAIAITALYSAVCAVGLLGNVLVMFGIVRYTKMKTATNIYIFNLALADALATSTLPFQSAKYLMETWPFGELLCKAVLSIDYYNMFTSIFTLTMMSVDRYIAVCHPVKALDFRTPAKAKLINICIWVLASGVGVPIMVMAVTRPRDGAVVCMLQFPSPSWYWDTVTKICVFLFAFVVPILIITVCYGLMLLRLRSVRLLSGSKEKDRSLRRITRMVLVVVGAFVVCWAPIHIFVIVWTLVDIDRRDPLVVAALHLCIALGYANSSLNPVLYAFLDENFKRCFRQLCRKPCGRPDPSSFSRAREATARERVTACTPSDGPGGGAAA

Regarding `NNC(=O)c1ccncc1` [ISONIAZID], the IC50 entry (in data set [1]; in data set [2]; at Progesterone receptor; against Cytochrome P450 2E1; at Thromboxane-A synthase; in data set [3]) was “Not Active” throughout. The Ki entry (at Cytochrome P450 2E1; in data set [3]) was “Not Active” throughout.
As to `NC(=O)c1ccccc1O` [SALICYLAMIDE], the IC50 entry (in data set [1]; in data set [2]; on Progesterone receptor; at Cytochrome P450 2E1; on Thromboxane-A synthase; in data set [3]) was “Not Active” in each case. Besides, the Ki result (on Cytochrome P450 2E1; in data set [3]) was “Not Active” each time.
In the case of `Nc1ccc(S(N)(=O)=O)cc1` [SULFANILAMIDE], the IC50 entry (in data set [1]; in data set [2]; on Progesterone receptor; at Cytochrome P450 2E1; against Thromboxane-A synthase; in data set [3]) was “Not Active” in each case. Besides, the Ki result (on Cytochrome P450 2E1; in data set [3]) was “Not Active” each time.
As to `CC1CN(c2cc3c(cc2F)c(=O)c(C(=O)O)cn3-c2ccc(F)cc2F)CCN1` (stereo unspecified) [TEMAFLOXACIN], the IC50 entry (in data set [1]; in data set [2]; at Progesterone receptor; on Cytochrome P450 2E1; against Thromboxane-A synthase; in data set [3]) was “Not Active” each time. Besides, the Ki entry (on Cytochrome P450 2E1; in data set [3]) was “Not Active” throughout.
Turning to `COC(=O)c1ccc(O)cc1` [METHYLPARABEN], the IC50 entry (in data set [1]; in data set [2]; on Progesterone receptor; against Cytochrome P450 2E1; against Thromboxane-A synthase; in data set [3]) was “Not Active” each time. Besides, the Ki entry (on Cytochrome P450 2E1; in data set [3]) was “Not Active” throughout.
In the case of `c1ccc2[nH]c(-c3cscn3)nc2c1` [THIABENDAZOLE], the IC50 entry (in data set [1]; in data set [2]; on Progesterone receptor; at Cytochrome P450 2E1; at Thromboxane-A synthase; in data set [3]) was “Not Active” each time. Moreover, the Ki entry (on Cytochrome P450 2E1; in data set [3]) was “Not Active” throughout.
With `C[C@](N)(Cc1ccc(O)cc1)C(=O)O` [METYROSINE], the IC50 entry (in data set [1]; in data set [2]; at Progesterone receptor; against Cytochrome P450 2E1; against Thromboxane-A synthase; in data set [3]) was “Not Active” in each case. Besides, the Ki result (at Cytochrome P450 2E1; in data set [3]) was “Not Active” in each case.
As for `Clc1ccc(C(c2ccccc2Cl)C(Cl)Cl)cc1` (stereo unspecified) [MITOTANE], the IC50 result (in data set [1]; in data set [2]; at Progesterone receptor; at Cytochrome P450 2E1; against Thromboxane-A synthase; in data set [3]) was “Not Active” in each case. Moreover, the Ki entry (on Cytochrome P450 2E1; in data set [3]) was “Not Active” in each case.
On to `COc1c(C)c2c(c(O)c1C/C=C(\C)CCC(=O)OCCN1CCOCC1)C(=O)OC2` [MYCOPHENOLATE MOFETIL], for which the IC50 result (in data set [1]; in data set [2]; on Progesterone receptor; on Cytochrome P450 2E1; at Thromboxane-A synthase; in data set [3]) was “Not Active” throughout. Besides, the Ki entry (on Cytochrome P450 2E1; in data set [3]) was “Not Active” in each case.
For `C[C@]12Cc3c[nH]nc3C[C@@H]1CC[C@@H]1[C@@H]2CC[C@@]2(C)[C@H]1CC[C@]2(C)O` [STANOZOLOL], the IC50 result is “Not Active” in data set [1]; “Not Active” in data set [2]; 3710 nM at Progesterone receptor (read-out: IC50); “Not Active” against Cytochrome P450 2E1; “Not Active” at Thromboxane-A synthase; “Not Active” in data set [3]. The Ki at Progesterone receptor is 483 nM; at Cytochrome P450 2E1, “Not Active”; in data set [3] it was “Not Active”.
With `CC(C)(C)NCC(O)c1cc(O)cc(O)c1` (stereo unspecified) [TERBUTALINE], the IC50 entry (in data set [1]; in data set [2]; on Progesterone receptor; against Cytochrome P450 2E1; at Thromboxane-A synthase; in data set [3]) was “Not Active” in each case. In addition, the Ki entry (at Cytochrome P450 2E1; in data set [3]) was “Not Active” in each case.
For the molecule `C=CC[C@@H]1/C=C(\C)C[C@H](C)C[C@H](OC)[C@H]2O[C@@](O)(C(=O)C(=O)N3CCCC[C@H]3C(=O)O[C@H](/C(C)=C/[C@@H]3CC[C@@H](O)[C@H](OC)C3)[C@H](C)[C@@H](O)CC1=O)[C@H](C)C[C@@H]2OC` [TACROLIMUS ANHYDROUS], the 50% inhibitory concentration (IC50) result (in data set [1]; in data set [2]; at Progesterone receptor; against Cytochrome P450 2E1; against Thromboxane-A synthase; in data set [3]) was “Not Active” throughout. Besides, the Ki result (at Cytochrome P450 2E1; in data set [3]) was “Not Active” each time.
Turning to `CC(=O)[C@H]1CC[C@H]2[C@@H]3CCC4=CC(=O)CC[C@]4(C)[C@H]3CC[C@]12C` [PROGESTERONE], the IC50 entry was “Not Active” in data set [1]; “Not Active” in data set [2]; 28 nM on Progesterone receptor (read-out: IC50); “Not Active” against Cytochrome P450 2E1; “Not Active” against Thromboxane-A synthase; “Not Active” in data set [3]. For the same molecule, the Ki was 3.62 nM on Progesterone receptor, “Not Active” on Cytochrome P450 2E1 and “Not Active” in data set [3].
